According to patent US20220380383A1, “NEUROPROTECTIVE PDI MODULATING SMALL MOLECULES AND METHODS OF USE THEREOF” (THE TRUSTEES OF COLUMBIA UNIVERSITY IN THE CITY OF NEW YORK, priority 2018, published 2022):
In brackets after ≈: the same amount, converted by molar mass. Read-outs that look alike come from different tables or passages of the source.

Legend:
[1] = molecular target: PDI (Homo sapiens, UniProt P07237); experiment: Enzymatic assay for inhibition of PDI using insulin as substrate; format: biochemical
PDI, sequence (P07237 18-508): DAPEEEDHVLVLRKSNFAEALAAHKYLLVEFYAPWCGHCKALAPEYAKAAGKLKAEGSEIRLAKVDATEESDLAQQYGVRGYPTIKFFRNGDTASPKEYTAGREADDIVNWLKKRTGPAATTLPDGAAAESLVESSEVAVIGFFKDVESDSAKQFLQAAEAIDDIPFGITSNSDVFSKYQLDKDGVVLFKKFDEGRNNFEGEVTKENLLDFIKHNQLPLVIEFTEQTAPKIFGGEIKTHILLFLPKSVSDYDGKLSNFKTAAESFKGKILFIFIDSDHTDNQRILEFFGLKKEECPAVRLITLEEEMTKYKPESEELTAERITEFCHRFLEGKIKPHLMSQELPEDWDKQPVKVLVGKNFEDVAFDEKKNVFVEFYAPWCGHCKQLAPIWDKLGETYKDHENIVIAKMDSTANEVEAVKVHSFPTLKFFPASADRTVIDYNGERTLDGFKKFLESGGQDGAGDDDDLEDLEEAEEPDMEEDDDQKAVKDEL

[2] = tested on: PC12 mHTTQ103 cells; experiment: Rescue of PC12 cells from mHTTQ103-induced cell death; format: cell-based, rat; settings: for EC50: Rattus norvegicus
[3] = molecular target: T1, human catalytic PDI A1 a domain (PDIa) (Homo sapiens, UniProt P07237); experiment: Isothermal titration calorimetry (ITC) binding to PDIa
T1 construct: made in house; host or cells: Escherichia coli BL21-Gold (DE3)
T1 sequence (P07237 18-134): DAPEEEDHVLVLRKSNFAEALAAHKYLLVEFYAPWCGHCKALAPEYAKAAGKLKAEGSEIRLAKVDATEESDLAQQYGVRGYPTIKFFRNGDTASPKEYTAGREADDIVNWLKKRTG
Procedure: All ITC experiments were carried out at 25° C. on MicoCal Auto-ITC200 system (GE Healthcare). […] ITC titration experiments were carried out at 25° C. with 19 injections, 2 μl per injection, and 180 seconds between each injection. The reference cell power was set to 5 μcal/sec. A control experiment was performed for each compound, where each compound was titrated into buffer to account for heat released due to dilution. This background was subtracted from test data before a final dissociation constant was obtained. […] Gibbs free energy, ΔG, was calculated from equation ΔG=ΔH-TΔS. All other parameters, Ka, n, ΔH, ΔS, were determined directly from the titration data.
LOC14 analogs were designed and synthesized as described in the synthetic schemes. The analogs were evaluated for their binding to PDIa using isothermal titration calorimetry (ITC) (results of certain compounds are shown in FIGS. 1A-1E). Next, the analogs were tested for their ability to rescue PC12 cells from mHTT^Q103 induced cell death in a dose-dependent manner (results of certain compounds are shown in FIG. 2).

[4] = molecular target: T2, 15N-labeled PDIa (Homo sapiens, UniProt P07237); experiment: 1H-15N HSQC NMR of PDIa; format: binding
T2 construct: His6 (N, cleaved yes); made in house; host or cells: Escherichia coli BL21-Gold (DE3), M9 minimal medium with 15NH4Cl
T2 sequence (P07237 18-134): as above
Procedure: The ^1H-^15N HSQC spectra were performed on Bruker Avance III 500 Ascend (500 MHz) spectrometers at 300 K. The uniformly ^15N-labeled PDIa was dissolved at 50 μM or 100 μM in 90% H2O/10% D20 (v/v), pH 5.1. The ^1H carrier frequency was positioned at the water resonance. The ^15N carrier frequency was positioned at 115 ppm. The spectral width in the ^1H dimension was 7500 Hz and the width in ω1 (^15N) dimension was 1824.6 Hz. Suppression of water signal was accomplished using the WATERGATE sequence. Heteronuclear decoupling was accomplished using GARP decoupling scheme.

[5] = tested on: uninduced PC12 cells not expressing mHTTQ103; experiment: General cell toxicity in PC12 cell culture assay; format: cell-based
Procedure: Neuroprotection was assessed by each compound's ability to rescue cells from mutant-huntingtin-induced cell death (“Ind Q103” cells; blue). General cell toxicity of each compound was assessed in uninduced cells not expressing mutant-huntingtin protein (“Unind Q103” cells; red). NMP, DMSO, LOC14 in NMP and LOC14 in DMSO were used as controls.
Data from cells induced to express mHTT^Q103 (blue) and cells not expressing mHTT^Q103 (red) are plotted as mean percent of DMSO-treated uninduced cells±SD with n=3.
The follow-up testing of primary screen hits was performed in a similar way. Fresh powder stocks of primary hits were re-ordered from vendors, dissolved in DMSO and tested in a two-fold serial dilution across 10 wells in both tebufenozide-induced and uninduced PC12 mHTT^Q103 cells. Dose-response curves were plotted as mean±SD and fit to either four-parameter sigmoidal (for uninduced cells) or bell-shaped (induced) function using Prism (GraphPad Software).

[6] = physchem; settings: organic solvent or mixture
[7] = Solubility (stock solvent)
[8] = PC-12, Tables 5-13, PC12 cells, read-out: EC50
[9] = rescue from mHTTQ103 induced cell death
[10] = PC-12, rescue from mHTTQ103 induced cell death, read-out: PC12 cells EC50
[11] = N/A = not active, read-out: ITC KD
[12] = Tables 5-13, NA = not active, read-out: Kd
[13] = Tables 5-13, solvent not given (DMSO in Table 1)

| Structure (SMILES) | Solubility [6] | Kd [3, 12] | Solubility [7] | inhibition of enzymatic (reductase) activity of PDI [1] | EC50 [2, 8] | Max Viability (%) ([2]; Tables 5-13, PC12 cells) | PC12 cells Max % Viability [2, 9] | ITC KD ([3]; N/A = not active) | toxicity in PC12 cell culture assay [5] | EC50 [2, 10] | other results |
| --- | --- | --- | --- | --- | --- | --- | --- | --- | --- | --- | --- |
| Cc1nc2sn(CN3CCN(C(=O)C4CC4)CC3)c(=O)c2c(C)c1C [LC-52] | – | – | – | did inhibit the enzymatic activity of PDI | 3570 nM | 68% | 68.30% | KD = N/A irreversible or not active | complete loss of toxicity | – | binding to PDI by ITC [3]: could not be detected by ITC; chemical shift changes in PDIa (1H-15N HSQC) [4]: induced the same chemical shifts in PDI as LOC14 |
| O=c1c2ccccc2sn1-c1ccccc1 [LC-24] | – | – | – | did not inhibit PDI's reductase activity | – | 31% | 30.83% | – | – | – | EC50 ([2]; PC-12): 1130 nM; EC50 ([2]; PC-12, read-out: PC12 cells EC50): 1130 nM; Kd ([3]; Tables 6, 11, 12, read-out: Kd (nM), first value of two-site binding): 8 nM; Kd ([3]; Tables 6, 11, 12, read-out: Kd (nM), second value of two-site binding): 1140 nM; Kd ([3]; read-out: KD2): 1140 nM |
| O=c1c2cccnc2sn1CN1CCN(Cn2sc3ncccc3c2=O)CC1 [LC-68, 2,2′-(piperazine-1,4-diylbis(methylene))bis(isothiazolo[5,4-b]pyridin-3(2H)-one)] | – | – | – | – | 2060 nM | 36% | 35.78% | Not active or irreversible | – | 2060 nM | Solubility ([6]; NMP (N-Methyl-2-Pyrrolidine)): 5 mM (≈ 2.07 mg/mL); Solubility ([6]; NMP): 5 mM (≈ 2.07 mg/mL); ITC binding ([3]; FIG. 1, PDI A1a titrated into compound in 0.8% NMP): no binding |
| Cc1cc(C)c2c(=O)n(CN3CCN(Cn4sc5nc(C)cc(C)c5c4=O)CC3)sc2n1 [LC-70, 2,2′-(piperazine-1,4-diylbis(methylene))bis(4,6-dimethylisothiazolo[5,4-b]pyridin-3(2H)-one)] | – | 3800 nM | – | – | 3090 nM | 59% | 59.18% | – | – | 3090 nM | Solubility ([6]; NMP (N-Methyl-2-Pyrrolidine)): 5 mM (≈ 2.35 mg/mL); Solubility ([6]; NMP): 5 mM (≈ 2.35 mg/mL); Kd ([3]; FIG. 1, PDI A1a titrated into compound in 0.8% NMP, read-out: Kd1): 3800 nM; Kd ([3]; read-out: ITC KD): 3800 nM |
| O=c1c2ccccc2sn1CN1CC[C@@H](O)C1 [LC-65, (R)-2-((3-hydroxypyrrolidin-1-yl)methyl)benzo[d]isothiazol-3(2H)-one] | 100 mM (≈ 25 mg/mL) | 162 nM | 100 mM in DMSO | – | 456 nM | 77% | 77.01% | – | – | 456 nM | Kd [3, 11]: 162 nM |
| O=c1[nH]sc2c(F)cccc12 [LC-40, 7-fluorobenzo[d]isothiazol-3(2H)-one] | – | – | 100 mM in DMSO | able to inhibit the enzymatic activity of PDI | 9320 nM | 72% | 72.31% | KD = N/A irreversible or not active | decreased cellular toxicity | – | binding to PDI by ITC [3]: showed no binding to the protein by ITC; Solubility [7, 13]: 100 mM (≈ 16.9 mg/mL) |
| Cc1nc2s[nH]c(=O)c2c(C)c1C [LC-51] | – | – | – | did inhibit the enzymatic activity of PDI | 2200 nM | 63% | 63.14% | KD = N/A irreversible or not active | complete loss of toxicity | – | binding to PDI by ITC [3]: could not be detected by ITC; chemical shift changes in PDIa (1H-15N HSQC) [4]: induced the same chemical shifts in PDI as LOC14 |
| Cc1cc(C)c2c(=O)n(CN3CCN(C(=O)C4CC4)CC3)sc2n1 [LC-53] | – | – | – | did inhibit the enzymatic activity of PDI | 4250 nM | 67% | 67.25% | KD = N/A irreversible or not active | complete loss of toxicity | 4250 nM | binding to PDI by ITC [3]: could not be detected by ITC; chemical shift changes in PDIa (1H-15N HSQC) [4]: induced the same chemical shifts in PDI as LOC14 |
| Cc1ccc(-n2sc3ccccc3c2=O)c(Br)c1 [LC-36] | – | – | – | did not inhibit PDI's reductase activity | – | 15% | – | – | – | – | Kd ([3]; read-out: KD2): 25 nM; Solubility [7, 13]: 100 mM (≈ 32 mg/mL) |
| Cc1cc(C)c2c(=O)[nH]sc2n1 [LC-50] | 100 mM (≈ 18 mg/mL) | 3830 nM | 100 mM in DMSO | – | 5180 nM | 65% | 65.19% | – | complete loss of toxicity | 5180 nM | Kd [3, 11]: 3830 nM |

Continued, in another order:

| Solubility [6] | Kd [3, 12] | Solubility [7] | Structure (SMILES) | inhibition of enzymatic (reductase) activity of PDI [1] | EC50 [2, 8] | Max Viability (%) ([2]; Tables 5-13, PC12 cells) | PC12 cells Max % Viability [2, 9] | ITC KD ([3]; N/A = not active) | toxicity in PC12 cell culture assay [5] | EC50 [2, 10] | other results |
| --- | --- | --- | --- | --- | --- | --- | --- | --- | --- | --- | --- |
| 100 mM (≈ 34.7 mg/mL) | 8 nM | 100 mM in DMSO | Cc1nnc2sn(CN3CCN(C(=O)C4CC4)CC3)c(=O)c2c1C [LC-59] | – | 10600 nM | 59% | 59.20% | – | – | 10600 nM | Kd [3, 11]: 8.2 nM |
| 100 mM (≈ 18.2 mg/mL) | – | 100 mM in DMSO | O=c1c2cccnc2sn1CO [LC-73, 2-(hydroxymethyl)isothiazolo[5,4-b]pyridin-3(2H)-one] | – | 2480 nM | 63% | 63.16% | – | – | 2480 nM | Kd ([3]; FIG. 1, PDI A1a titrated into compound in DMSO, read-out: Kd): 9.8 nM; Kd ([3]; ITC assay, read-out: KD): 10 nM |
| 50 mM (≈ 16.6 mg/mL) | 1210 nM | – | O=c1c2ccccc2sn1CN1CCC(N2CCCCC2)CC1 [LC-64, 2-([1,4′-bipiperidin]-1′-ylmethyl)benzo[d]isothiazol-3(2H)-one] | – | 393 nM | 81% | 81.43% | – | – | 393 nM | Solubility ([6]; DMSO): 50 mM (≈ 16.6 mg/mL); Kd ([3]; read-out: ITC KD): 1210 nM |
| 50 mM (≈ 16.6 mg/mL) | 662 nM | – | Cc1ccc2c(=O)n(CN3CCN(C(=O)C4CC4)CC3)sc2c1 [LC-62, 2-((4-(cyclopropanecarbonyl)piperazin-1-yl)methyl)-6-methylbenzo[d]isothiazol-3(2H)-one] | – | 1580 nM | 54% | 54.31% | – | – | 1580 nM | Solubility ([6]; DMSO): 50 mM (≈ 16.6 mg/mL); Kd [3, 11]: 662 nM |
